Test results published in patent US20070099995A1, “Use of hydroxyoleic acid and related compounds as functional food additives” (priority 2003, published 2007).

What was measured:
[1] = Hypotensive test: systolic arterial pressure in female Sprague-Dawley rats; assay type: in vivo, rat; settings: for effect on systolic arterial pressure with respect to the control: short-term (2 to 4 hours) administration, female Sprague-Dawley rats, FIG. 5; for reduction of blood pressure: rats
Description: (§1) 2-Hydroxyoleic acid induced significant reductions of blood pressure in rats (FIG. 4a). These reductions occurred rapidly (at 2 hours of treatment, 19±6 mmHg, P<0.01, n=6) and after a long period (1 week, 26±7 mmHg, P<0.001, n=6). In genetically hypertensive rats, SHR strain, ingestion of 2-hydroxyoleic acid (600 mg/kg every 12 hours) produced very marked reductions in blood pressure. These reductions, of some 70 mmHg, induced normalization of systolic pressure in hypertensive SHR rats.

[2] = Blood pressure and heart rate after ingestion (species not stated); assay type: in vivo; settings: chronic treatments lasting a week
Description: The hypotensive effect produced by ingestion of 2-hydroxyoleic acid and its analogs results in a reduction in blood pressure within 2 hours of ingestion, and this is maintained for days and weeks while ingestion of this compound is maintained. Aminoleic acid, for example, reduces blood pressure by 15 mmHg in chronic treatments lasting a week.

[3] = tested on: G-proteins; assay: Binding of [35S]GTPγS to membranes of NIH 3T3 cells transfected with the rat adrenoceptor α2A/D (activity of G-proteins); assay type: biochemical; settings: membranes of NIH 3T3 cells transfected with rat adrenoceptor α2A/D; FIG. 2; compared with daunomycin
Text: Hydroxyoleic acid and related compounds are capable of modulating the activity of G-proteins, measured by the binding of [^35S] GTPγS (FIG. 2). […] Abscissa: C=control; 2OHOA=2-hydroxyoleic; DNM=daunomycin. Ordinate: Binding of [^35S]GTPγS (% of control).

[4] = Systolic arterial pressure in genetically hypertensive rats, SHR strain; assay type: in vivo, rat
Description: as §1
(§2) In SHRs which were not given 2-hydroxyoleic acid (SHR empty squares), no reduction in arterial pressure was observed. […] The reduction induced by hydroxyoleic acid on arterial pressure meant that there was no significant difference between the values registered at the end of the diet period for the hypertensive and normotensive rats.

[5] = Systolic arterial pressure in normotensive WKY rats; assay type: in vivo, rat; settings: male WKY (normotensive) rats, 600 mg/kg every 12 hours for 7 days, FIG. 6
Description: as §1, §2

[6] = Blood pressure in humans; assay type: in vivo, human; settings: 90 mg/kg per day for 8 days, FIG. 4b
Text: The days prior to treatment are shown with negative values. *P<0.05, **P<0.01.

[7] = Body weight of normotensive (WKY) and hypertensive (SHR) rats; assay type: in vivo, rat; settings: 600 mg/kg every 12 hours, 8 days
Description: In another series of experiments, the diet of normotensive rats (WKY) and hypertensive rats (SHR) was supplemented with hydroxyoleic acid (600 mg/kg, every 12 hours) and it was confirmed that the weight of the animals decreased by between 30 and 40 grams (15-20% of the body weight) in an 8-day diet period (FIG. 8).

With `CCCCCC/C=C\CCCCCCCCCC(=O)O` [cis-vaccenic acid] the “effect on systolic arterial pressure with respect to the control” value (shortened to “effect … to the control”) [1] was “significant decreases”.
For Aminoleic acid, the “reduction of blood pressure” value [2] was 15 mmHg.
In the case of `CCCCCCCC/C=C\CCCCCCCCCCCCCC(=O)O` [nervonic acid], the “effect … to the control” value [1] is reported as “significant decreases”.
For `CCCCCC/C=C\CCCCCCCC(=O)O` [palmitoleic acid], the “effect … to the control” value [1] was “significant decreases”.
With `CCCCCCCC/C=C\CCCCCCCC(=O)O` [oleic acid] the “effect … to the control” value [1] was “significant decreases”.
In the case of `CCCCCCCC/C=C\CCCCCCC(C)C(=O)O` (stereo not drawn) [2-methyl oleic acid], the “effect … to the control” value [1] is reported as “significant decreases”.
In the case of `CCCCCCCC/C=C\CCCCCCC(O)C(=O)O` (stereo not drawn) [2-hydroxyoleic acid, cis-2-hydroxy-9-octadecenoic acid], the “Binding of [35S]GTPγS (function of the G-proteins)” value [3] is reported as “decrease in function of the G-proteins even greater than daunomycin”, the “reduction of blood pressure” value ([1]; 1 week (chronic, 90 mg/kg per day for 7 days, FIG. 4a), n=6, P<0.001) is reported as 26±7 mmHg and the “reduction of blood pressure” value ([1]; at 2 hours of treatment (acute, 30 mg/kg, FIG. 4a), n=6, P<0.01) is reported as 19±6 mmHg. The “effect … to the control” value [1] was “significant decreases”, the “reduction in blood pressure (systolic)” value ([4]; SHR rats, 600 mg/kg every 12 hours) was about 70 mmHg and the “effect on systolic arterial pressure” value ([4]; male SHR rats, 600 mg/kg every 12 hours for 7 days, FIG. 6) was “significant, large reductions”. For the same compound, the “effect on arterial pressure” value [5] was “neither the 2-hydroxyoleic acid (black circles) nor the vehicle (empty circles) produced statistically significant changes”, the “effect on blood pressure” value [6] was “significant, large decreases” and the “reduction in body weight” value [7] was 15-20%.
